Among the targets are Adenosine receptor A2a (Homo sapiens, UniProt P29274); Vasopressin V2 receptor (Homo sapiens, UniProt P30518); Vasopressin V1a receptor (Homo sapiens, UniProt P37288); Histamine H3 receptor (Homo sapiens, UniProt Q9Y5N1).
Assay [1] has as its target Beta-1 adrenergic receptor (Homo sapiens, UniProt P08588). It counts as functional.
Assay [2] addresses Voltage-dependent L-type calcium channel subunit alpha-1C (Rattus norvegicus, UniProt P22002). The assay is classed as functional.
For assay [3], the target named is T1, Muscarinic acetylcholine receptor M2 (Homo sapiens, UniProt P08172).
T1 sequence (P08172 whole entry): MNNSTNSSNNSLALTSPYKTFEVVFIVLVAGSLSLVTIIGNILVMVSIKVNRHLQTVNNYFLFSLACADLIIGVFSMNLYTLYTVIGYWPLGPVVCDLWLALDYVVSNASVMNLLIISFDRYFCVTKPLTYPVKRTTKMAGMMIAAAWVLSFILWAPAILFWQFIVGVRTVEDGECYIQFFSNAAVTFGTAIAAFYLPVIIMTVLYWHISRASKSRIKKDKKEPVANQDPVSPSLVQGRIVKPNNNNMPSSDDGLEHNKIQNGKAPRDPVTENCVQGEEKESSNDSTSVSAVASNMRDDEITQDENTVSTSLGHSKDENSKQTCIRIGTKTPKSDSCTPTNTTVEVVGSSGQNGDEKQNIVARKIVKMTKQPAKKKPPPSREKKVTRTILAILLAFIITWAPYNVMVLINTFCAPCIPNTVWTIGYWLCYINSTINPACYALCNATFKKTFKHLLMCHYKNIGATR
The assay is classed as functional, cell-based.

In assay [4] the target is T1, Muscarinic acetylcholine receptor M2. It counts as functional, cell-based. This is another data set of the same source.
The target in assay [5] is T2, Cannabinoid receptor 1 (Homo sapiens, UniProt P21554).
Assay [6] concerns the target Gamma-aminobutyric acid receptor subunit alpha-1 (Rattus norvegicus, UniProt P62813). The assay is classed as functional.
The target of assay [7] is Growth hormone secretagogue receptor type 1 (Homo sapiens, UniProt Q92847).
Chain of Growth hormone secretagogue receptor type 1 (Q92847 whole entry): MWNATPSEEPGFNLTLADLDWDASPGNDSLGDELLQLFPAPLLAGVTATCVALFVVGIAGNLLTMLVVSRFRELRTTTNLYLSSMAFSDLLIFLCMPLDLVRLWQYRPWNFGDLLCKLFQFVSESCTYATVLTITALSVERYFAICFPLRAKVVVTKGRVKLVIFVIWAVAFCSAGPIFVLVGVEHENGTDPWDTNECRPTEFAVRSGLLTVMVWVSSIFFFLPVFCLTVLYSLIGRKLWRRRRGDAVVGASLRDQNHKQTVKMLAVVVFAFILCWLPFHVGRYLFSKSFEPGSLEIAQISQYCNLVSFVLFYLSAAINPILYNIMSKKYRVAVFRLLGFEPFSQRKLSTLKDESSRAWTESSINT
In assay [8] the target is Glutamate receptor ionotropic, NMDA 1 (Rattus norvegicus, UniProt P35439).
The next assay deals with Histamine H2 receptor (Homo sapiens, UniProt P25021). It counts as functional, cell-based.
Assay [9] addresses T3, 5-hydroxytryptamine receptor 1A (Homo sapiens, UniProt P08908).
T3 sequence (P08908 whole entry): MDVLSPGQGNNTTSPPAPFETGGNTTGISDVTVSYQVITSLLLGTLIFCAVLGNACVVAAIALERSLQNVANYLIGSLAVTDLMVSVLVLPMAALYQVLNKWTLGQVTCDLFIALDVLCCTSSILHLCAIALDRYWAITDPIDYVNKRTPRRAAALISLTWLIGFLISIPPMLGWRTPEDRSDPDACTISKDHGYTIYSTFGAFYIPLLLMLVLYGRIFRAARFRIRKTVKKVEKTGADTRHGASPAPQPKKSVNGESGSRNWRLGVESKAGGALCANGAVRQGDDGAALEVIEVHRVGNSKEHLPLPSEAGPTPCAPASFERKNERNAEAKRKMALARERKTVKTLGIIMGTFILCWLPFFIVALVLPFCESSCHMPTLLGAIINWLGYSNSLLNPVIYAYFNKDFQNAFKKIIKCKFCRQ
The assay is classed as functional, cell-based.

In assay [10] the target is 3',5'-cyclic-AMP phosphodiesterase 4D (Homo sapiens, UniProt Q08499). It counts as functional.
Chain of 3',5'-cyclic-AMP phosphodiesterase 4D (Q08499 whole entry): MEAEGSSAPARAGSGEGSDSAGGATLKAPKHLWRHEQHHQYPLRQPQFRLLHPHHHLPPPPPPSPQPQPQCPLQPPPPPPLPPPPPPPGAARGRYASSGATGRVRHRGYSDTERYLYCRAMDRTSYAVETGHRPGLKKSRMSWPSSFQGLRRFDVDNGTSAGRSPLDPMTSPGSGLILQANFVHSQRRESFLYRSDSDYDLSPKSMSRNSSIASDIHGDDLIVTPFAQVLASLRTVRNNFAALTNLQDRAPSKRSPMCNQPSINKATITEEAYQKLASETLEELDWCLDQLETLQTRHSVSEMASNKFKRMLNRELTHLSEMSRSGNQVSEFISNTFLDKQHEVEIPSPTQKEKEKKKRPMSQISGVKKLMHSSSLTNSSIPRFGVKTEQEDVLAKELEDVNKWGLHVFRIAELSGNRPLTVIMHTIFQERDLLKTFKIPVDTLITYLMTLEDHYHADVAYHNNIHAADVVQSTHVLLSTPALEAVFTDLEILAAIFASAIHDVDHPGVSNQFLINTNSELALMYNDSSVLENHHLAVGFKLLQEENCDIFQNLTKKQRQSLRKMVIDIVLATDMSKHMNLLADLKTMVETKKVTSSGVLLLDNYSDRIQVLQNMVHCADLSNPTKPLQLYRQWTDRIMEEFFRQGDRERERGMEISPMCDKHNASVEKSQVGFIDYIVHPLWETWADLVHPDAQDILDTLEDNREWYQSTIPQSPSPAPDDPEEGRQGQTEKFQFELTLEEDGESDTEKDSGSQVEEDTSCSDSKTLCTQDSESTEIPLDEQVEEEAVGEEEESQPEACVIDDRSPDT
Assay [11] addresses T4, Mu-type opioid receptor (Homo sapiens, UniProt P35372).
In assay [12] the target is cGMP-inhibited 3',5'-cyclic phosphodiesterase 3A (Homo sapiens, UniProt Q14432). It counts as functional.
Assay [13] has as its target T4, Mu-type opioid receptor. The experiment in a line: biochemical. The assay is classed as functional.
For assay [14], the target named is T2, Cannabinoid receptor 1. The assay is classed as functional, cell-based.
Note: assay procedure not described here.

Chain of Voltage-dependent L-type calcium channel subunit alpha-1C (P22002 whole entry): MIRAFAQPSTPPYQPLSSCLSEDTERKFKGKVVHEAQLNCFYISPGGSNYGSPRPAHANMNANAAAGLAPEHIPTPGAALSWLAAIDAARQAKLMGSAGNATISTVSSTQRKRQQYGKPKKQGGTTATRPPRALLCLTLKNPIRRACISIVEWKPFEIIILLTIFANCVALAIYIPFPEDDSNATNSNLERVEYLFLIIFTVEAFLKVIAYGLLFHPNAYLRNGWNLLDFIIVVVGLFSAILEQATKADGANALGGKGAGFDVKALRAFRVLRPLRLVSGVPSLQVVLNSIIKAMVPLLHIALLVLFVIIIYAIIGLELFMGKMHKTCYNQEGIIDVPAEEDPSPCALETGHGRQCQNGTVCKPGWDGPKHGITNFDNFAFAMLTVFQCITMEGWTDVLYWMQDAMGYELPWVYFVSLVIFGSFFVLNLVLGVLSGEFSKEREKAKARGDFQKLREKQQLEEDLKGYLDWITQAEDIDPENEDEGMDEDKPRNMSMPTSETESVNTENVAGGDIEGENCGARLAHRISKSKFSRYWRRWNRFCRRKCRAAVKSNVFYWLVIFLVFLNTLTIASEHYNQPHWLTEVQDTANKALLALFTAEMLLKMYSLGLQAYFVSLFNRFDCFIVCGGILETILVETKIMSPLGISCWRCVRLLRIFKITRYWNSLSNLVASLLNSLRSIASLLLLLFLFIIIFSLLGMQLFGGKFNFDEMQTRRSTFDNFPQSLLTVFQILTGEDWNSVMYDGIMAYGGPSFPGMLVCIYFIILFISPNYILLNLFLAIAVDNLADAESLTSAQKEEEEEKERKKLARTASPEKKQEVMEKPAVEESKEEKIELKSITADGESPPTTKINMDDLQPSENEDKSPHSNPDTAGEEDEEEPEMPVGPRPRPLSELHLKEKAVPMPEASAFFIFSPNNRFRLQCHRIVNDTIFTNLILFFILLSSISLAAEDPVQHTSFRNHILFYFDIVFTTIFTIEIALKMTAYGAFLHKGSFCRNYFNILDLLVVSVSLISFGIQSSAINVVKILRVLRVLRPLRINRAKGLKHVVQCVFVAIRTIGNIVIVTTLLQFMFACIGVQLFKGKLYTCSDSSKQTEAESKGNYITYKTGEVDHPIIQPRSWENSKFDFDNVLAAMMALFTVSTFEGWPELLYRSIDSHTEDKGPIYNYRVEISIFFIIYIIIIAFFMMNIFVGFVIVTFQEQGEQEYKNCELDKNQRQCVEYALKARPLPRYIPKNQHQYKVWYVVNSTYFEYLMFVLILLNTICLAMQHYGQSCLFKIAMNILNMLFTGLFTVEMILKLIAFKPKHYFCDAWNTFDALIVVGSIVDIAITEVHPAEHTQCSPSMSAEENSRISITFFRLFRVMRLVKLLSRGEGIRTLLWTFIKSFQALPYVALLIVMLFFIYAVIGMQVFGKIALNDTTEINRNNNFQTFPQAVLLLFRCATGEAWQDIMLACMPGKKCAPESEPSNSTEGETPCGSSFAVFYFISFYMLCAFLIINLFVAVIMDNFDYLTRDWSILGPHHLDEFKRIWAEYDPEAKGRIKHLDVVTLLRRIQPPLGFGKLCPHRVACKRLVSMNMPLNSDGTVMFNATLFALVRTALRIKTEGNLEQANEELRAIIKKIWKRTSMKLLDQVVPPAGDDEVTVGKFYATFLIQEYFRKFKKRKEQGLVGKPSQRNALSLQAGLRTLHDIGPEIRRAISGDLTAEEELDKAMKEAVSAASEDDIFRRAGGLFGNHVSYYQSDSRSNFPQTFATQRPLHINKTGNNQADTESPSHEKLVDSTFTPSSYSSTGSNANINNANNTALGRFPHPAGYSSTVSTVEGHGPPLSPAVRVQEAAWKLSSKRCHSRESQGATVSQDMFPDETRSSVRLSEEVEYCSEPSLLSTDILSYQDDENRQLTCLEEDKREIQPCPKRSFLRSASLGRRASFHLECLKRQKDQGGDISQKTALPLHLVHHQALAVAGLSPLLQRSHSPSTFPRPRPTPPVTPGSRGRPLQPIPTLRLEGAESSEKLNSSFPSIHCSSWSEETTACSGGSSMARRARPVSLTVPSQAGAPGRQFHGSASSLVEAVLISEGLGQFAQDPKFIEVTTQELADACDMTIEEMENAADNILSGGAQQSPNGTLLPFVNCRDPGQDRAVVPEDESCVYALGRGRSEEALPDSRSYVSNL
T4 sequence (P35372 whole entry): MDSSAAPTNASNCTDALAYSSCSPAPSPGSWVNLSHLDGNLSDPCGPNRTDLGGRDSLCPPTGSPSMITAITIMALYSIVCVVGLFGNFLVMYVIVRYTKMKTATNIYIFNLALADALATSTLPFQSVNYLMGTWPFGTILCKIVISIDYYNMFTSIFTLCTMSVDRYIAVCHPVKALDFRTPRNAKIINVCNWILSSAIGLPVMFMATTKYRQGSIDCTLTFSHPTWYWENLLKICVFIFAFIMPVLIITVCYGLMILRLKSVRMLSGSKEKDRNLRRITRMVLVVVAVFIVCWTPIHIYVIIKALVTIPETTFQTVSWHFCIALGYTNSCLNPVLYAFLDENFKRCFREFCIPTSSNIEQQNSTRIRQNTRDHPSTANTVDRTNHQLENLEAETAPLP
Chain of Vasopressin V2 receptor (P30518 whole entry): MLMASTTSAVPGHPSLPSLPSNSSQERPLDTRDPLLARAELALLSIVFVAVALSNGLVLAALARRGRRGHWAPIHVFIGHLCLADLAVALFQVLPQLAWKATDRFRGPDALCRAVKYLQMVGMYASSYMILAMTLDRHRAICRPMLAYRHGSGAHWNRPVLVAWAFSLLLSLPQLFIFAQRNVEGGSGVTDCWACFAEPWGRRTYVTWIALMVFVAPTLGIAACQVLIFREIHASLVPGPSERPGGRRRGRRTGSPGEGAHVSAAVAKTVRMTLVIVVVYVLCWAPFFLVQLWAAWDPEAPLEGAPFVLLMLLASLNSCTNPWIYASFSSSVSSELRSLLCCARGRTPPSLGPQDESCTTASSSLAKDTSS
Chain of Beta-1 adrenergic receptor (P08588 whole entry): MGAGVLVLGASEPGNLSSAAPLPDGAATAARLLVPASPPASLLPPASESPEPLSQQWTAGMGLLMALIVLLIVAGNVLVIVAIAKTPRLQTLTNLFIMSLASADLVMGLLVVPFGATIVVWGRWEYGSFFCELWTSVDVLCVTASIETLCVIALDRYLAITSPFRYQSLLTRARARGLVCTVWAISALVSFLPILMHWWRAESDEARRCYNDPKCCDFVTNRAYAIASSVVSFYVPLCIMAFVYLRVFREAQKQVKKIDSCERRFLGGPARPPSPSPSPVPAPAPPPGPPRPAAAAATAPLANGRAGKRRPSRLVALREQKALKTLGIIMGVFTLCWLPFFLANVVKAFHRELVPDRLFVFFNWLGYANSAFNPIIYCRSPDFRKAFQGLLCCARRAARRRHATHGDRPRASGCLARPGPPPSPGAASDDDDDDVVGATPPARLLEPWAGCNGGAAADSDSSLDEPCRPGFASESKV
Chain of Histamine H3 receptor (Q9Y5N1 whole entry): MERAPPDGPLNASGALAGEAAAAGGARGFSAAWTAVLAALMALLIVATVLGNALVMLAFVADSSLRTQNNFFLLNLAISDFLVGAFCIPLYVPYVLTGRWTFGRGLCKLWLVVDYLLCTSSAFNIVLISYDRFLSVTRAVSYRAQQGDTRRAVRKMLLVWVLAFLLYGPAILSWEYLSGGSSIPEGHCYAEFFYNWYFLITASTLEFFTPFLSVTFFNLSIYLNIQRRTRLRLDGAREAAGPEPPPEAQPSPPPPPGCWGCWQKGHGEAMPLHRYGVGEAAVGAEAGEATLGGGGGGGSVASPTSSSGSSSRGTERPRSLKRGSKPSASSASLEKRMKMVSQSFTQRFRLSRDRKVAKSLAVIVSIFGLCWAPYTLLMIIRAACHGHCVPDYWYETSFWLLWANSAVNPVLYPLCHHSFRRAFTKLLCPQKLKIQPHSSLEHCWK

Take `CCC1(CCC(C)C)C(=O)NC(=O)NC1=O` [AMOBARBITAL]: the AC50 (at Adenosine receptor A2a; in assay [1]; at Vasopressin V2 receptor; in assay [2]; in assay [3]; in assay [4]) was > 10 µM throughout. The concentration at half-maximal activity (AC50) (on Cannabinoid receptor 1 [5]; in assay [6]; in assay [7]; in assay [8]; at Histamine H2 receptor; in assay [9]) was > 10 µM in each case. Further, the concentration at half-maximal activity (AC50) (in assay [10]; on Mu-type opioid receptor [11]; in assay [12]) was > 30 µM in each case.
`COc1ccc(C2C(=O)c3ccccc3C2=O)cc1` [ANISINDIONE]: the concentration at half-maximal activity (AC50) (on Adenosine receptor A2a; in assay [1]; at Vasopressin V2 receptor; in [2]; in assay [3]; in [4]) was > 10 µM each time. In addition, the half-maximal activity concentration (AC50) (usually the concentration at which the activity in the assay is half-maximal) on Cannabinoid receptor 1 [5] is > 10 µM; in [6] it was > 10 µM; in [7], > 10 µM; in assay [8], > 10 µM; on Histamine H2 receptor it was > 30 µM; in [9], > 10 µM. For the same molecule, the AC50 (on Mu-type opioid receptor [13]; in assay [10]; at Mu-type opioid receptor [11]; in assay [12]) was > 30 µM in each case.
On to `COc1cc(N)c(Cl)cc1C(=O)NC1CCN(CCCOc2ccc(F)cc2)CC1OC` (stereo not given) [CISAPRIDE], for which the AC50 was > 30 µM on Adenosine receptor A2a; > 10 µM in assay [1]; > 30 µM at Vasopressin V1a receptor; > 30 µM at Vasopressin V2 receptor; > 10 µM in [2]; > 10 µM in assay [3]. The concentration at half-maximal activity (AC50) was > 10 µM in assay [4]; > 30 µM on Cannabinoid receptor 1 [14]; > 10 µM at Cannabinoid receptor 1 [5]; > 10 µM in assay [6]; > 30 µM in assay [7]; > 10 µM in assay [8]. For the same molecule, the concentration at half-maximal activity (AC50) on Histamine H2 receptor is > 10 µM; in assay [9], > 10 µM; in assay [10], > 30 µM; on Mu-type opioid receptor [11] it was > 30 µM; in assay [12], > 30 µM; on Histamine H3 receptor it was > 10 µM.
For the molecule `CCOC(=O)C(C)(C)Oc1ccc(Cl)cc1` [CLOFIBRATE], the half-maximal activity concentration (AC50) at Adenosine receptor A2a was > 30 µM; in [1], > 10 µM; at Vasopressin V1a receptor, > 30 µM; on Vasopressin V2 receptor, > 30 µM; in [2], > 10 µM; in [3] it was > 10 µM. Moreover, the AC50 in assay [4] is > 10 µM; on Cannabinoid receptor 1 [14], > 30 µM; at Cannabinoid receptor 1 [5], > 10 µM; in assay [6] it was > 10 µM; in assay [7] it was > 30 µM; in assay [8], > 10 µM. Also, the half-maximal activity concentration (AC50) on Histamine H2 receptor is > 10 µM; in assay [9], > 10 µM; in assay [10], > 30 µM; on Mu-type opioid receptor [11] it was > 30 µM; in assay [12], > 30 µM; at Histamine H3 receptor, > 10 µM.
Take `O=C1Nc2ccc(Cl)cc2C(c2ccccc2Cl)=NC1O` (stereo not given) [LORAZEPAM]: the AC50 on Adenosine receptor A2a was > 30 µM; in [1] it was > 10 µM; at Vasopressin V1a receptor it was > 10 µM; on Vasopressin V2 receptor, > 30 µM; in assay [2] it was > 10 µM; in [3], > 10 µM. For the same molecule, the concentration at half-maximal activity (AC50) in [4] was > 10 µM; at Cannabinoid receptor 1 [14], > 30 µM; at Cannabinoid receptor 1 [5] it was > 10 µM; in assay [6], 0.0074 µM; in assay [7], > 30 µM; in [8], > 10 µM. Further, the AC50 on Histamine H2 receptor was > 10 µM; in assay [9], > 10 µM; in [10] it was > 30 µM; at Mu-type opioid receptor [11] it was > 30 µM; in assay [12] it was > 30 µM; on Histamine H3 receptor it was > 10 µM.
Turning to `COc1ccc2cc(CCC(C)=O)ccc2c1` [NABUMETONE], the half-maximal activity concentration (AC50) (at Adenosine receptor A2a; in assay [1]; at Vasopressin V2 receptor; in assay [2]; in assay [3]; in assay [4]) was > 10 µM each time. Further, the concentration at half-maximal activity (AC50) on Cannabinoid receptor 1 [5] was > 10 µM; in assay [6] it was > 10 µM; in assay [7], > 10 µM; in assay [8], > 10 µM; on Histamine H2 receptor it was > 30 µM; in [9], > 10 µM. Also, the AC50 (on Mu-type opioid receptor [13]; in assay [10]; on Mu-type opioid receptor [11]; in assay [12]) was > 30 µM each time.
Take `Cc1ccnc2c1NC(=O)c1cccnc1N2C1CC1` [NEVIRAPINE]: the AC50 was 15.2 µM on Adenosine receptor A2a; > 10 µM in assay [1]; > 10 µM at Vasopressin V1a receptor; > 30 µM on Vasopressin V2 receptor; > 10 µM in assay [2]; > 10 µM in assay [3]. Further, the AC50 was > 10 µM in assay [4]; > 30 µM on Cannabinoid receptor 1 [14]; > 10 µM at Cannabinoid receptor 1 [5]; > 10 µM in [6]; > 30 µM in assay [7]; > 10 µM in [8]. Further, the AC50 on Histamine H2 receptor is > 10 µM; in assay [9], > 10 µM; in assay [10] it was > 10 µM; at Mu-type opioid receptor [11] it was > 10 µM; in [12], 4.5 µM; on Histamine H3 receptor, > 10 µM.
As for `NC(=O)NC(=O)Cc1ccccc1` [PHENACEMIDE], the half-maximal activity concentration (AC50) (on Adenosine receptor A2a; in [1]; on Vasopressin V2 receptor; in [2]; in assay [3]; in [4]) was > 10 µM each time. Moreover, the concentration at half-maximal activity (AC50) (at Cannabinoid receptor 1 [5]; in [6]; in [7]; in assay [8]; at Histamine H2 receptor; in assay [9]) was > 10 µM throughout. For the same molecule, the half-maximal activity concentration (AC50) (in assay [10]; at Mu-type opioid receptor [11]; in assay [12]) was > 30 µM in each case.
For the molecule `CCCN(CCC)S(=O)(=O)c1ccc(C(=O)O)cc1` [PROBENECID], the concentration at half-maximal activity (AC50) (on Adenosine receptor A2a; in assay [1]; on Vasopressin V2 receptor; in assay [2]; in assay [3]; in [4]) was > 10 µM throughout. Moreover, the concentration at half-maximal activity (AC50) (on Cannabinoid receptor 1 [5]; in assay [6]; in assay [7]; in assay [8]; on Histamine H2 receptor; in assay [9]) was > 10 µM each time. Besides, the AC50 (in assay [10]; on Mu-type opioid receptor [11]; in assay [12]) was > 30 µM each time.
Regarding `Cc1cc(C)nc(NS(=O)(=O)c2ccc(N)cc2)n1` [SULFAMETHAZINE], the half-maximal activity concentration (AC50) (at Adenosine receptor A2a; in [1]; at Vasopressin V2 receptor; in assay [2]; in [3]; in assay [4]) was > 10 µM in each case. Besides, the concentration at half-maximal activity (AC50) is > 10 µM at Cannabinoid receptor 1 [5]; > 10 µM in assay [6]; > 10 µM in [7]; > 10 µM in [8]; > 30 µM on Histamine H2 receptor; > 10 µM in assay [9]. Moreover, the AC50 (on Mu-type opioid receptor [13]; in assay [10]; at Mu-type opioid receptor [11]; in assay [12]) was > 30 µM in each case.

Source of the values: ChEMBL document CHEMBL5291721, “A preclinical secondary pharmacology resource illuminates target-adverse drug reaction associations of marketed drugs” (Nat Commun, 2023).
